Data published in ChEMBL document CHEMBL4376820, “Homodimeric Tobramycin Adjuvant Repurposes Novobiocin as an Effective Antibacterial Agent against Gram-Negative Bacteria” (J Med Chem, 2019).
Calls of active or inactive are those of the source. The rule behind the calls is not given here.

How the values were obtained:
Escherichia coli [1] = test: Potentiation of novobiocin-induced antibacterial activity against colistin-resistant Escherichia coli 94474 clinical isolate harboring mcr-1 gene assessed as fold reduction in novobiocin MIC incubated for 18 hrs by CLSI protocol based assay relative to novobiocin MIC; assay type: functional
Pseudomonas aeruginosa [2] = test: Potentiation of novobiocin-induced antibacterial activity against carbapenem and colistin-resistant Pseudomonas aeruginosa 91433 clinical isolate assessed as novobiocin MIC at <= 7.1 uM incubated for 18 hrs by CLSI protocol based assay (reference value: 16 ug/ml); assay type: functional; conditions: Pseudomonas aeruginosa, 91433, 18 h
Pseudomonas aeruginosa [3] = test: Synergistic antibacterial activity against wild type Pseudomonas aeruginosa PAO1 assessed as potentiation of cefotaxime-induced antibacterial effect incubated for 18 hrs by checkerboard assay; assay type: functional, organism-based
Klebsiella pneumoniae [4] = test: Antibacterial activity against colistin-resistant Klebsiella pneumoniae 113254 clinical isolate incubated for 18 hrs by CLSI protocol based assay; assay type: functional; conditions: Klebsiella pneumoniae, 113254, 18 h
Pseudomonas aeruginosa [5] = test: Potentiation of novobiocin-induced antibacterial activity against mexAB-oprM mutant deficient Pseudomonas aeruginosa PAO200 assessed as novobiocin MIC at <= 7.1 uM incubated for 18 hrs by CLSI protocol based assay (reference value: 32 ug/ml); assay type: functional; conditions: PAO200, 18 h
Pseudomonas aeruginosa [6] = test: Antibacterial activity against carbapenem-resistant Pseudomonas aeruginosa 100036 clinical isolate incubated for 18 hrs by CLSI protocol based assay; assay type: functional; conditions: Pseudomonas aeruginosa, 100036, 18 h
Pseudomonas aeruginosa [7] = test: Synergistic antibacterial activity against wild type Pseudomonas aeruginosa PAO1 assessed as potentiation of minocycline-induced antibacterial effect incubated for 18 hrs by checkerboard assay relative to minocycline alone; assay type: functional
Pseudomonas aeruginosa [8] = test: Synergistic antibacterial activity against wild type Pseudomonas aeruginosa PAO1 assessed as potentiation of colistin-induced antibacterial effect at <=7.1 uM incubated for 18 hrs by checkerboard assay; assay type: functional, organism-based
Enterobacter cloacae [9] = test: Potentiation of novobiocin-induced antibacterial activity against colistin-resistant Enterobacter cloacae 118568 clinical solate assessed as fold reduction in novobiocin MIC incubated for 18 hrs by CLSI protocol based assay relative to novobiocin MIC; assay type: functional
Pseudomonas aeruginosa [10] = test: Potentiation of novobiocin-induced antibacterial activity against carbapenem-resistant Pseudomonas aeruginosa 100036 clinical isolate assessed as novobiocin MIC at <= 7.1 uM incubated for 18 hrs by CLSI protocol based assay (reference value: 1024 ug/ml); assay type: functional; conditions: Pseudomonas aeruginosa, 100036, 18 h
Pseudomonas aeruginosa [11] = test: Synergistic antibacterial activity against wild type Pseudomonas aeruginosa PAO1 assessed as potentiation of doxycycline-induced antibacterial effect incubated for 18 hrs by checkerboard assay; assay type: functional, organism-based
[12] = Toxicity in Galleria mellonella larvae MDR Acinetobacter baumannii isolate assessed as larvae protection at 50 mg/kg in combination with novobiocin measured after 24 to 96 hrs relative to control; assay type: ADME, organism-based; conditions: in vivo
Enterobacter cloacae [13] = test: Potentiation of novobiocin-induced antibacterial activity against Enterobacter cloacae 117029 clinical solate assessed as fold reduction in novobiocin MIC incubated for 18 hrs by CLSI protocol based assay relative to novobiocin MIC; assay type: functional
Pseudomonas aeruginosa [14] = test: Potentiation of novobiocin-induced antibacterial activity against carbapenem-resistant Pseudomonas aeruginosa 259-96918 clinical isolate assessed as novobiocin MIC at <= 7.1 uM incubated for 18 hrs by CLSI protocol based assay (reference value: 512 ug/ml); assay type: functional; conditions: 259-96918, 18 h
HEK293 = test: Cytotoxicity against human HEK293 cells at 50 uM incubated for 48 hrs by PrestoBlue dye based fluorescence assay; assay type: cell-based; conditions: hek293, 48 h
Enterobacter cloacae [15] = test: Potentiation of novobiocin-induced antibacterial activity against colistin-resistant Enterobacter cloacae 121187 clinical solate assessed as novobiocin MIC at <= 7.1 uM incubated for 18 hrs by CLSI protocol based assay (reference value: 64 ug/ml); assay type: functional; conditions: Enterobacter cloacae, 121187, 18 h
Escherichia coli [16] = test: Antibacterial activity against colistin-resistant Escherichia coli 94393 clinical isolate harboring mcr-1 gene incubated for 18 hrs by CLSI protocol based assay; assay type: functional; conditions: Escherichia coli, 94393, 18 h
Klebsiella pneumoniae [17] = test: Potentiation of novobiocin-induced antibacterial activity against colistin-resistant Klebsiella pneumoniae 113250 clinical isolate assessed as novobiocin MIC at <= 7.1 uM incubated for 18 hrs by CLSI protocol based assay (reference value: 512 ug/ml); assay type: functional; conditions: Klebsiella pneumoniae, 113250, 18 h
Pseudomonas aeruginosa [18] = test: Synergistic antibacterial activity against wild type Pseudomonas aeruginosa PAO1 assessed as potentiation of linezolid-induced antibacterial effect incubated for 18 hrs by checkerboard assay; assay type: functional, organism-based
Acinetobacter baumannii [19] = test: Potentiation of novobiocin-induced antibacterial activity against Acinetobacter baumannii 027 clinical isolate assessed as fold reduction in novobiocin MIC incubated for 18 hrs by CLSI protocol based assay relative to novobiocin MIC; assay type: functional
Klebsiella pneumoniae [20] = test: Potentiation of novobiocin-induced antibacterial activity against Klebsiella pneumoniae 116381 clinical isolate assessed as novobiocin MIC at <= 7.1 uM incubated for 18 hrs by CLSI protocol based assay (reference value: 1024 ug/ml); assay type: functional; conditions: Klebsiella pneumoniae, 116381, 18 h
Acinetobacter baumannii [21] = test: Potentiation of novobiocin-induced antibacterial activity against wild type Acinetobacter baumannii ATCC 17978 assessed as novobiocin MIC at <= 7.1 uM incubated for 18 hrs by CLSI protocol based assay (reference value: 16 ug/ml); assay type: functional; conditions: ATCC 17978, 18 h
Klebsiella pneumoniae [22] = test: Potentiation of novobiocin-induced antibacterial activity against Klebsiella pneumoniae 116381 clinical isolate assessed as fold reduction in novobiocin MIC incubated for 18 hrs by CLSI protocol based assay relative to novobiocin MIC; assay type: functional
Pseudomonas aeruginosa [23] = test: Potentiation of novobiocin-induced antibacterial activity against carbapenem-resistant Pseudomonas aeruginosa 262-101856 clinical isolate assessed as novobiocin MIC at <= 7.1 uM incubated for 18 hrs by CLSI protocol based assay (reference value: 512 ug/ml); assay type: functional; conditions: 262-101856, 18 h
Acinetobacter baumannii [24] = test: Antibacterial activity against novobiocin and test compound-resistant Acinetobacter baumannii ATCC 17978 mutant generated from seven serial passages in presence of novobiocin by checkerboard assay; assay type: functional
Pseudomonas aeruginosa [25] = test: Potentiation of novobiocin-induced antibacterial activity against carbapenem-resistant Pseudomonas aeruginosa 259-96918 clinical isolate assessed as fold reduction in novobiocin MIC incubated for 18 hrs by CLSI protocol based assay relative to novobiocin MIC; assay type: functional
Klebsiella pneumoniae [26] = test: Potentiation of novobiocin-induced antibacterial activity against colistin-resistant Klebsiella pneumoniae 113254 clinical isolate assessed as fold reduction in novobiocin MIC incubated for 18 hrs by CLSI protocol based assay relative to novobiocin MIC; assay type: functional
Escherichia coli [27] = test: Potentiation of novobiocin-induced antibacterial activity against colistin-resistant Escherichia coli 94474 clinical isolate harboring mcr-1 gene assessed as novobiocin MIC at <= 7.1 uM incubated for 18 hrs by CLSI protocol based assay (reference value: 256 ug/ml); assay type: functional; conditions: Escherichia coli, 94474, 18 h
Klebsiella pneumoniae [28] = test: Potentiation of novobiocin-induced antibacterial activity against colistin-resistant Klebsiella pneumoniae 113250 clinical isolate assessed as fold reduction in novobiocin MIC incubated for 18 hrs by CLSI protocol based assay relative to novobiocin MIC; assay type: functional
Pseudomonas aeruginosa [29] = test: Potentiation of novobiocin-induced antibacterial activity against wild type Pseudomonas aeruginosa PAO1 assessed as novobiocin MIC at <= 7.1 uM incubated for 18 hrs by CLSI protocol based assay (reference value: 512 ug/ml); assay type: functional; conditions: PAO1, 18 h

Q: Which Ratio (Escherichia coli [1]) does the source give for `NC[C@H]1O[C@H](O[C@H]2[C@H](OCCCCc3cn(CCCCO[C@@H]4[C@@H](O[C@H]5O[C@H](CO)[C@@H](O)[C@H](N)[C@H]5O)[C@H](N)C[C@H](N)[C@H]4O[C@H]4O[C@H](CN)[C@@H](O)C[C@H]4N)nn3)[C@@H](O[C@H]3O[C@H](CO)[C@@H](O)[C@H](N)[C@H]3O)[C@H](N)C[C@@H]2N)[C@H](N)C[C@@H]1O.O=C(O)C(F)(F)F.O=C(O)C(F)(F)F.O=C(O)C(F)(F)F.O=C(O)C(F)(F)F.O=C(O)C(F)(F)F.O=C(O)C(F)(F)F.O=C(O)C(F)(F)F.O=C(O)C(F)(F)F.O=C(O)C(F)(F)F.O=C(O)C(F)(F)F` here?
A: 16

Q: What about the MIC (Pseudomonas aeruginosa [2]) of the same compound?
A: 1 µg/mL

Q: And the Activity (Pseudomonas aeruginosa [3])?
A: Dose-dependent effect

Q: What about the MIC (Klebsiella pneumoniae [4]) of the same compound?
A: > 128 µg/mL

Q: What about the MIC (Pseudomonas aeruginosa [5]) of the same compound?
A: 0.125 µg/mL

Q: What about the MIC (Pseudomonas aeruginosa [6]) of the same compound?
A: > 128 µg/mL

Q: What about the “fold change (FC)” value (Pseudomonas aeruginosa [7]) of the same compound?
A: 4 - 128

Q: And the Activity (Pseudomonas aeruginosa [8])?
A: inactive

Q: And the Ratio (Enterobacter cloacae [9])?
A: 32

Q: And the MIC (Pseudomonas aeruginosa [10])?
A: 8 µg/mL

Q: What about the Activity (Pseudomonas aeruginosa [11]) of the same compound?
A: Dose-dependent effect

Q: And the Activity [12]?
A: 80%

Q: What about the Ratio (Enterobacter cloacae [13]) of the same compound?
A: 128

Q: What about the MIC (Pseudomonas aeruginosa [14]) of the same compound?
A: 8 µg/mL

Q: What about the Activity (HEK293) of the same compound?
A: Non-Toxic

Q: And the MIC (Enterobacter cloacae [15])?
A: 8 µg/mL

Q: What about the MIC (Escherichia coli [16]) of the same compound?
A: > 128 µg/mL

Q: And the MIC (Klebsiella pneumoniae [17])?
A: 16 µg/mL

Q: What about the Activity (Pseudomonas aeruginosa [18]) of the same compound?
A: Dose-dependent effect

Q: What about the Ratio (Acinetobacter baumannii [19]) of the same compound?
A: 16

Q: And the MIC (Klebsiella pneumoniae [20])?
A: 8 µg/mL

Q: And the MIC (Acinetobacter baumannii [21])?
A: 0.5 µg/mL

Q: What about the Ratio (Klebsiella pneumoniae [22]) of the same compound?
A: 128

Q: And the MIC (Pseudomonas aeruginosa [23])?
A: 8 µg/mL

Q: And the MIC (Acinetobacter baumannii [24])?
A: 16 µg/mL

Q: And the Ratio (Pseudomonas aeruginosa [25])?
A: 64

Q: And the Ratio (Klebsiella pneumoniae [26])?
A: 16

Q: And the MIC (Escherichia coli [27])?
A: 16 µg/mL

Q: What about the Ratio (Klebsiella pneumoniae [28]) of the same compound?
A: 32

Q: And the MIC (Pseudomonas aeruginosa [29])?
A: 4 µg/mL
